Results on 26 compounds are retold here after US20090197856A1, “ANTIVIRAL COMPOUNDS” (Genelabs Technologies, Inc., priority 2007, published 2009).

The first test addresses T1, HCV-NS5b (Hepatitis C virus genotype 1b, UniProt Q9WMX2).
T1 construct: (His)6 (C); made in house; host or cells: XL-1 cells (E. coli), IPTG-inducible plasmid
The test can be described thus: HCV-NS5b enzyme assay using homopolymer substrate. The class given is biochemical.
Conditions: not given
The source says:
The coding sequence of NS5b protein was cloned by PCR from pFKI389luc/NS3-3′/ET as described by Lohmann, V., et al. (1999) Science 285, 110-113 using the primers shown on page 266 of WO 2005/012288
The cloned fragment is missing the C terminus 21 amino acid residues. The cloned fragment was inserted into an IPTG-inducible (isopropyl-β-D-thiogalactopyranoside) expression plasmid that provides an epitope tag (His)6 at the carboxy terminus of the protein.
The recombinant enzyme was expressed in XL-1 cells and after induction of expression, the protein was purified using affinity chromatography on a nickel-NTA (nitrilotriacetic acid) column. Storage condition was 10 mM Tris-HCl pH 7.5, 50 mM NaCl, 0.1 mM EDTA (ethylenediaminetetraacetic acid), 1 mM DTT (dithiothreotol), 20% glycerol at −20° C.
The polymerase activity was assayed by measuring incorporation of radiolabeled UTP into a RNA product using a biotinylated, homopolymeric template. The template was formed by annealing adenosine homopolymer to uridine 20-mer capped with a 5′-biotin group (biotin-U^20) in the ratio of 1:4. Typically, the assay mixture (50 μL) contained 25 mM Tris-HCl (pH 7.5), 40 mM KCl, 0.3 mM MgCl2, 0.05 mM EDTA, 0.2 unit/μL Superase RNAse Inhibitor, 5 mM DTT, 30 μM UTP (Uridine triphosphate), including [^3H]-UTP (uridine triphosphate) at 0.4 μCi/μL with final concentration of 1 μM, and 50 nM of homopolymeric template. Test compounds were initially dissolved in 100% DMSO and further diluted in aqueous buffer containing 5% DMSO. Typically, compounds were tested at concentrations between 2 nM and 50 μM. Reactions were started with addition of enzyme and allowed to continue at 30° C. for 90 minutes. Reactions were quenched with 8 μL of 100 mM EDTA and reaction mixtures (30 μL) were transferred to streptavidin-coated scintillation proximity microtiter plates (FlashPlates) and incubated at room temperature overnight. Incorporation of radioactivity was determined by scintillation counting.
Inhibitor IC50 values were determined by adding test compound as ten point, two-fold serial dilutions in 100% DMSO with a final reaction concentration of 5%. IC50 was calculated by plotting the % inhibition against compound concentration and fitting the data to a constrained four parameter sigmoidal curve, equivalent to the “four parameter logistic equation”:
Where Bottom is the minimum Y value, Top is the maximum Y value, and Hillslope is the slope of the linear portion of the semi-log curve. Top and Bottom were constrained to values of 0% and 100%, respectively. These analyses were performed using Graphpad Prism v.4.0 (Graphpad Software, Inc.) in conjunction with DS Accord for EXCEL 6.0 (Accelrys, Microsoft Corp.).
The table below lists the IC50 values of compounds determined using the homopolymer substrates.
Consider `O=C(O)c1ccc2c(C3CCCCC3)c3n(c2c1)CCCn1cc(C(=O)C(=O)N2CCCCC2)c2cccc-3c21` [Compound 114], for which it took 89 nM to reach half-maximal inhibition (IC50).

As to `CN1CCN(C(=O)C(=O)c2cn3c4c(cccc24)-c2c(C4CCCCC4)c4ccc(C(=O)O)cc4n2CCC3)CC1` [Compound 123], the IC50 stood at 155 nM.

Staying with this test, now noted: homopolymer substrate, [3H]-UTP incorporation, 30° C., 90 minutes; read-out: IC50.
As for `O=C(O)c1ccc2c(C3CCCCC3)c3n(c2c1)CC(CO)Cn1ccc2cccc-3c21` (racemic) [Compound 377], the IC50 is 280 nM.

As for `O=C(O)c1ccc2c(C3CCCCC3)c3n(c2c1)CCCCn1cc(CN2CCCCC2)c2cccc-3c21` [Compound 105], the IC50 worked out at 131 nM.

For the compound `O=C(O)c1ccc2c(C3CCCCC3)c3n(c2c1)CCCn1cc(CN2CCOCC2)c2cccc-3c21` [Compound 107], the IC50 amounted to 19 nM.

With `CN(C)Cc1cn2c3c(cccc13)-c1c(C3CCCCC3)c3ccc(C(=O)O)cc3n1CC2` [Compound 108], the IC50 amounted to 83 nM.

On to `CC(C)NCc1cn2c3c(cccc13)-c1c(C3CCCCC3)c3ccc(C(=O)O)cc3n1CCC2` [Compound 110], for which the half-inhibitory concentration (IC50) worked out at 96 nM.

For the compound `CN(C)Cc1cn2c3c(cccc13)-c1c(C3CCCCC3)c3ccc(C(=O)O)cc3n1CCC2` [Compound 111], the IC50 stood at 106 nM.

As to `CN(C)Cc1cn2c3c(cccc13)-c1c(C3CCCCC3)c3ccc(C(=O)O)cc3n1CCCC2` [Compound 112], the IC50 came out at 109 nM.

On to `O=C(O)c1ccc2c(C3CCCCC3)c3n(c2c1)CCCn1cc(CN2CCC2)c2cccc-3c21` [Compound 113], for which the IC50 was found to be 84 nM.

As for `COC1CCN(Cc2cn3c4c(cccc24)-c2c(C4CCCCC4)c4ccc(C(=O)O)cc4n2CCC3)CC1` [Compound 115], the concentration for half-maximal inhibition (IC50) is 87 nM.

Take `O=C(O)c1ccc2c(C3CCCCC3)c3n(c2c1)CCCn1cc(CN2CCCCO2)c2cccc-3c21` [Compound 116]: the IC50 was determined as 138 nM.

Take `CC1CCN(Cc2cn3c4c(cccc24)-c2c(C4CCCCC4)c4ccc(C(=O)O)cc4n2CCC3)CC1` [Compound 117]: the IC50 is 108 nM.

As for `O=C(O)c1ccc2c(C3CCCCC3)c3n(c2c1)CCn1cc(CN2CCCCC2)c2cccc-3c21` [Compound 118], the IC50 stood at 48 nM.

In the case of `O=C(O)c1ccc2c(C3CCCCC3)c3n(c2c1)CCCn1cc(CN2CCCCC2)c2cccc-3c21` [Compound 119], the IC50 was 114 nM.

Take `CCN(CC)Cc1cn2c3c(cccc13)-c1c(C3CCCCC3)c3ccc(C(=O)O)cc3n1CCC2` [Compound 120]: the IC50 is 85 nM.

In the case of `O=C(O)c1ccc2c(C3CCCCC3)c3n(c2c1)CCCn1cc(CN2CCCC2)c2cccc-3c21` [Compound 121], the IC50 was 49 nM.

`O=C(O)c1ccc2c(C3CCCCC3)c3n(c2c1)CCn1cc(CN2CCOCC2)c2cccc-3c21` [Compound 122]: the IC50 is 51 nM.

In the case of `COC1CCCN(Cc2cn3c4c(cccc24)-c2c(C4CCCCC4)c4ccc(C(=O)O)cc4n2CCC3)C1` (centres unmarked) [Compound 124], the IC50 was 114 nM.

Turning to `CN1CCN(Cc2cn3c4c(cccc24)-c2c(C4CCCCC4)c4ccc(C(=O)O)cc4n2CCC3)CC1` [Compound 125], the 50% inhibitory concentration (IC50) was determined as 68 nM.

In the case of `O=C(O)c1ccc2c(C3CCCCC3)c3n(c2c1)CCCn1cc(CN2CC[C@@H](F)C2)c2cccc-3c21` [Compound 126], the IC50 came out at 96 nM.

Turning to `O=C(O)c1ccc2c(C3CCCCC3)c3n(c2c1)CCCn1cc(CN2CCC(F)(F)CC2)c2cccc-3c21` [Compound 127], the IC50 stood at 290 nM.

On to `O=C(O)c1ccc2c(C3CCCCC3)c3n(c2c1)CCCn1cc(CN2CCSCC2)c2cccc-3c21` [Compound 128], for which the IC50 is 101 nM.

On to `CCN(C)Cc1cn2c3c(cccc13)-c1c(C3CCCCC3)c3ccc(C(=O)O)cc3n1CCC2` [Compound 129], for which the IC50 is 96 nM.

Consider `CC1CCCN(Cc2cn3c4c(cccc24)-c2c(C4CCCCC4)c4ccc(C(=O)O)cc4n2CCC3)C1` (centres unmarked) [Compound 130], for which the IC50 is 111 nM.

Take `O=C(O)c1ccc2c(C3CCCCC3)c3n(c2c1)CCCn1cc(CNC2CC2)c2cccc-3c21` [Compound 131]: the IC50 was 208 nM.
